Assay results: patent EP0235942B1, “Alkylenediamine derivatives” (NIPPON CHEMIPHAR CO., LTD., priority 1986, dated 1987)

How the values were obtained:
[1] = tested on: Neuromuscular Junction of Crayfish; experiment: Glutamate blocking effect on neuromuscular junction of crayfish (intracellular recording of the L-glutamate-induced potential); format: cell-based; conditions: for inhibition at 0.5 µM / inhibition at 20 µM: 5 min; for inhibition at 0.5 µM: as Table 1, but concentration of the pretreatment liquid reduced to 5 x 10⁻⁷ M; for glutamate response after washing: treated sample washed with circulating salt solution for 40 min, then glutamate response measured; for inhibition at 20 µM: inhibition ratio of glutamate potential induced by L-glutamate (1 x 10⁻⁴M), pretreated with test solution (2 x 10⁻⁵ M) for 5 min
Description: (1) Evaluation of glutamate blocking effect was performed according to the methods of Ishida et al [J. Physiol., 298, 301-319(1980)], and Shinozaki et al[Comp. Biochem. Physiol, 70c, 49-58(1981)]. In more detail, the opener muscle of the first walking leg of the crayfish is employed for the examination described below. A neuromusculor sample is fixed in a vessel, and an aqueous salt solution for crayfish [composition: NaCℓ (195 mM), CaCℓ₂ (18mM), KCℓ (5.4 mM), Tris-maleate buffer (pH 7.5, 10 mM), and glucose (11 mM)] was circulated at a constant rate into the vessel. A glass microelectrode filled with 3M KCℓ solution was inserted into the middle portion of the muscle fibre and the change of potential induced by L-glutamate (1 x 10⁻⁴M) was measured intracellularly. The glutamate blocking effect of the compound to be tested was evaluated by determining an inhibition ratio of glutamate potential protreated by the test solution (2 x 10⁻⁵ M) for 5 min.
(2) The glutamate blocking effects of the compound of the present invention as described in Synthesis Example 3 (i.e. 1-[3-[4-methyl-1-(3-methylbutyl)penty]amino]propyl]piperidine) and the known 5-methyl-1-phenyl-2-(3-piperidinopropylamino)hexan-1-ol were evaluated in the same manner as above except that the concentration of the liquid for the pretreatment was reduced from 2 x 10⁻⁵ M to 5 x 10⁻⁷ M. The results are set forth in Table 2.
(§1) (3) The neuromuscular sample which was fixed in the vessel and treated in the above manner was subsequently washed with the salt solution flowing in the vessel under circulation for 40 min. After such washing was complete, the glutamate response was measured on the wahsed neuromuscular sample. […] Accordingly, it was confirmed that the glutamate blocking action of the aninoalcohol derivative was not kept for sufficient period of time. […] The prolongation of the effect of glutamate response shown in using this alkylenediamine compound was also observed on the alkylenediamine derivatives tested in the (1) above, (4) Acute toxicity (LD₅₀, i.v.) was measured on the alkylenediamine drivatives of the invention and the known aminoalcohol derivative.

[2] = Acute toxicity (LD50, i.v.); conditions: in vivo, iv, read-out: Acute Toxicity (LD₅₀)
Description: as §1

[3] = tested on: opener muscle of the first walking leg of the crayfish; conditions: dose of 2 x 10⁻⁴M; glutamic acid (1x10⁻⁴M); cited from earlier work

| Compound | inhibition at 20 µM [1] [%] | also measured |
| --- | --- | --- |
| CC(C)CCC(NCCCN1CCCCC1)C(O)c1ccccc1 (stereo not drawn) [5-Methyl-1-phenyl-2-(3-piperidinopropylamino)hexan-1-ol, reference compound] |  | inhibition at 0.5 µM [1]: 6%; glutamate response after washing [1]: almost the same level as shown by the sample prior to the treatment; LD50 [2]: 13.6 mg/kg |
| COc1ccc([C@@H]2Sc3ccccc3N(CCN(C)C)C(=O)[C@@H]2OC(C)=O)cc1 [Diltiazem] |  | inhibition of depolarization induced by glutamic acid [3]: approx. 30% |
| CC(C)CCC(CNCCCN1CCCCC1)c1ccccc1 (stereo not drawn) [Synthesis Example 1, 1-[3-(5-Methyl-2-phenylhexylamino)propyl]piperidine] | 99 |  |
| CCCCCC(CCCCC)NCCCN1CCCCC1 [Synthesis Example 2, 1-[3-(1-Pentylhexylamino)propyl]piperidine] | 80 | LD50 [2]: 23.3 mg/kg |
| CC(C)CCC(CCC(C)C)NCCCN1CCCCC1 [Synthesis Example 3, 1-[3-[4-Methyl-1-(3-methylbutyl)pentylamino]propyl]-piperidine] | 99 | inhibition at 0.5 µM [1]: 25%; glutamate response after washing [1]: almost no glutamate response; LD50 [2]: 29.5 mg/kg |
| CC(C)CCC(Cc1ccccc1)NCCCN1CCCCC1 (stereo not drawn) [Synthesis Example 4, 1-[3-(1-Benzyl-4-methylpentylamino)propyl]piperidine] | 99 |  |
| CC(C)CCOC(CNCCCN1CCCCC1)c1ccccc1 (stereo not drawn) [Synthesis Example 7] | 96 |  |
| c1ccc(OC(CNCCCN2CCCCC2)c2ccccc2)cc1 (stereo not drawn) [Synthesis Example 8, 1-[3-(2-Phenoxy-2-phenylethylamino)propyl]piperidine] | 94 |  |
| CC(C)CC(=O)OCC(Cc1ccccc1)NCCCN1CCCCC1 (stereo not drawn) [Synthesis Example 9, 3-Phenyl-2-(3-piperidinopropylamino)propyl 3-methylbutanoate] | 90 |  |
| CC(C)CCC(CCc1ccccc1)NCCCN1CCCCC1 (stereo not drawn) [Synthesis Example 10, 1-[3-[4-Methyl-1-(2-phenylethyl)pentylamino]propyl]piperidine] | 99 |  |
| CC(C)CCC(CCNCCCN1CCCCC1)Cc1ccccc1 (stereo not drawn) [Synthesis Example 11, 1-[3-(3-Benzyl-6-methylheptylamino)propyl]piperidine] | 96 |  |
| CC(C)CCC(CNCCCN1CCCCC1)Cc1ccccc1 (stereo not drawn) [Synthesis Example 12, 1-[3-(2-Benzyl-5-methylhexylamino)propyl]piperidino] | 98 |  |
| CC(C)CCC(CCCc1ccccc1)NCCCN1CCCCC1 (stereo not drawn) [Synthesis Example 13, 1-[3-[4-Methyl-1-(3-phenylpropyl)pentylamino]propyl]piperidine] | 96 |  |
| CCC(CC)C(CCC(C)C)NCCCN1CCCCC1 (stereo not drawn) [Synthesis Example 15, 1-[3-[1-(1-Ethylpropyl)-4-methylpentylamino]propyl]piperidine] | 94 |  |
| CCCCCC(CCC(C)C)NCCCN1CCCCC1 (stereo not drawn) [Synthesis Example 18, 1-[3-[1-(3-Methylbutyl)hexylamino]propyl]piperidine] | 97 |  |
| CC(C)CCC(CCC(C)(C)C)NCCCN1CCCCC1 (stereo not drawn) [Synthesis Example 19, 1-[3-[4,4-Dimethyl-1-(3-methylbutyl]pentylamino]propyl]piperidine] | 88 |  |
| CC(C)CCC(CCC(C)C)NCCCN1CCCC1 [Synthesis Example 20, 1-[3-[4-methyl-1-(3-methylbutyl)pentylamino]propyl]pyrrolidine] | 96 |  |
| CC(C)CCN(CCCN1CCCCC1)CCC(C)C [Synthesis Example 26, 1-[3-[N,N-Bis-(3-methylbutyl)amino]propyl]piperidine] | 91 | LD50 [2]: 24.8 mg/kg |
| CC(C)CCN(CCCN1CCCCC1)CCOc1ccccc1 [Synthesis Example 28, 1-[3-[3-Methyl-N-(2-phenoxyethyl)butylamino]propyl]piperidine] | 72 |  |
| CC(C)CCN(CCCN1CCCCC1)CCc1ccccc1 [Synthesis Example 29, 1-[3-[3-Methyl-N-(2-phenylethyl)butylamino]propyl]piperidine] | 80 |  |
| CC(C)CCN(CCCc1ccccc1)CCCN1CCCCC1 [Synthesis Example 30, 1-[3-[3-Methyl-N-(3-phenylpropyl)butylamino]propyl]piperidine] | 96 |  |
| CCCCCCN(CCCN1CCCCC1)CCC(C)C [Synthesis Example 33, 1-[3-[N-hexyl-N-(3-methylbutyl)amino]propyl]piperidine] | 83 |  |
| CCCCCCCN(CCCN1CCCCC1)CCC(C)C [Synthesis Example 34, 1-[3-[N-heptyl-N-(3-methylbutyl)amino]propyl]piperidine] | 91 |  |
| CC(C)CCCCN(CCCCN1CCCCC1)CCC(C)C [Synthesis Example 38, 1-[4-[N-(3-Methylbutyl)-N-(5-methylhexyl)amino]butyl]piperidine] | 96 |  |
| CC(C)CCCCN(CCCN1CCCCCC1)CCC(C)C [Synthesis Example 41, 1-[3-[N-(3-Methylbutyl)-N-(5-methylhexyl)amino]propyl]perhydroazepin] | 100 |  |
| Caroberine |  | inhibition of depolarization induced by glutamic acid [3]: approx. 30% |
